# Experiment: enzyme-inhibition screening assay: The 16 compounds showing substantial inhibition against TcGlcK at compound concentrations of 20 μM were then examined in a confirmatory assay in which the amino sugar analogues were at a concentration of 20 μM and were tested against the assay's only coupling enzyme, G6PDH, to verify enzyme activity; the assay was performed in quadruplicate. […] These confirmed hits included representatives from all three monosaccharide scaffolds tested (i.e., D-GlcN, D-ManN, and D-GalN).
smiles,measurement,value
O=C(N[C@H]1C(O)O[C@H](CO)[C@@H](O)[C@@H]1O)c1ccccc1 (stereo partly specified),IC50,16.1 µM

# Source: ChEMBL document CHEMBL5728660, “Monosaccharide amine and 3-nitro-2-phenyl-2H-chromene based inhibitors of glucose kinases” (2021)
